Test results: patent US20210046101A1, “COMBINATION THERAPEUTICS” (UCL BUSINESS LTD, priority 2018, published 2021)
Where a SMILES comes first, the peptide text is derived from it. The star is where a group is joined. Cbz = O=C(OCc1ccccc1)*; CH2F = FC*

B1: TRAIL: TNF-related apoptosis-inducing ligand; used as mouse iz-TRAIL (protein, UniProt P50592 39-291, looked up)
extracellular domain: YMYFTNEMKQLQDNYSKIGLACFSKTDEDFWDSTDGEILNRPCLQVKRQLYQLIEEVTLRTFQDTISTVPEKQLSTPPLPRGGRPQKVAAHITGITRRSNSALIPISKDGKTLGQKIESWESSRKGHSFLNHVLFRNGELVIEQEGLYYIYSQTYFRFQEAEDASKMVSKDKVRTKQLVQYIYKYTSYPDPIVLMKSARNSCWSRDAEYGLYSIYQGGLFELKKNDRIFVSVTNEHLMDLDQEASFFGAFLIN
modifications: extracellular domain isoleucine zipper fusion

Columns and labels:
[1] = test system: PMKs derived from Hoip^E-KO mice; experiment: Viability of primary murine keratinocytes (PMKs) from Hoip^E-KO mice cultured with inhibitors, CellTiter-Glo assay; format: cell-based, mouse; conditions: no exogenous stimulus, cultured four days with 20 μM Z-VAD-fmk, 10 μM Necrostatin-1s or 1 μM RIPK3 inhibitor (FIG. 3e)
From the text: FIG. 3. Aberrant apoptosis drives lethal dermatitis in Hoip^E-KO and Hoil-1^E-KO mice. a, Quantification of TUNEL and CC3 positive cells in skin sections from mice with the indicated genotypes (n=3 mice per genotype). Error bars represent mean values±s.e.m. *P≤0.05, **P≤0.01, ***P≤0.001. b, Representative images of skin sections from mice with the indicated genotypes (n=4) stained with antibody against CD45 (red) at P0. Nuclei were stained with DAPI (blue). White dashed lines separate the epidermis (above) from the dermis (below). Scale bar, 50 μm. c, Flow cytometry analysis of immune cells in skin samples from mice with the indicated genotypes at the indicated postnatal days. […] Lysates and IP were analysed by Western blotting for the indicated proteins. e, PMKs derived from Hoip^E-KO and control mice were cultured for four days in absence (NT: not-treated) or presence of the inhibitors Necrostatin-1s (N), ZVAD-fmk (Z) or RIPK3i. Cell viability (%) was measured by CellTiter-Glo assay on day four. […] CC3: cleaved Caspase-3. f, Cell viability (%) measured by CellTiter-Glo assay of PMKs derived from adult mice with the indicated genotypes. Results are expressed as mean values±SEM (n=8 mice per genotype). […] CC3: cleaved Caspase-3. i, Quantification of TUNEL and CC3 positive cells in skin sections from mice with the indicated genotypes (n=3 mice per genotype). […]

[2] = test system: PMKs derived from Tnfr1^KO;Hoil-1^E-KO mice; experiment: Viability of PMKs from Tnfr1^KO;Hoil-1^E-KO mice after death ligand / Poly(I:C) stimulation, CellTiter-Glo assay; format: cell-based, mouse; conditions: 24 hours; TRAIL 50 ng/ml, CD95L 50 ng/ml, Poly(I:C) 100 μg/ml; control = Tnfr1^KO PMKs with HOIL-1 (FIG. 4a)
Procedure: FIG. 4. CD95L- and TRAIL-induced cell death drives TNFR1-independent dermatitis. a, PMKs derived from adult mice with the indicated genotypes were treated or not for 24 hours with TRAIL [50 ng/ml], CD95L [50 ng/ml] and Poly(I:C) [100 μg/ml]. Cell viability (%) was measured by CellTiter-Glo assay. Results are expressed as mean values±SEM. (n=7 mice per genotype). **p≤0.01, ***p≤0.001, NS=not significant. Control mice represent a pool of Tnfr1^KO;Hoil-1^fl/fl;K14-Cre− and Tnfr1^KO;Hoil-1^fl/wt;K14-Cre+ mice b, Representative images of mice with the indicated genotypes. c, Severity score of dermatitis was assessed at P70 in mice with the indicated genotypes. The total score was determined by evaluating the regions of the body affected by the lesions (black) and the character of the lesion (white). Tnfr1^KO;Hoil-1^E-KO (n=6), Trail-r^KO;Tnfr1^KO;Hoil-1^E-KO (n=4), Tlr3^KO;Tnfr1^KO;Hoil-1^E-KO (n=4), Cd95^E-DD; Tnfr1^KO; Hoil-1^E-KO (n=12), Trail-r^KO; Tlr3^KO;Tnfr1^KO;Hoil-1^E-KO (n=20) and Cd95^E-DD;Trail-r^KO;Tnfr1^KO;Hoil-1^E-KO (n=19), Mlkl^KO;Tnfr1^KO;Hoip^E-KO (n=13). d, Kaplan-Meier survival curve of mice with the indicated genotypes. […]
Isolation, culture and viability of primary murine keratinocytes. […] On the last day, cell viability was measured using the CellTiter-Glo Luminescent Cell Viability Assay kit (Promega) following the manufacturers instructions. […]

Molecule	loss in viability of HOIP-deficient PMKs (cell viability, CellTiter-Glo) [1]	cell viability as compared to control PMKs (CellTiter-Glo) [2]
COC(=O)C[C@H](NC(=O)[C@H](C)NC(=O)[C@@H](NC(=O)OCc1ccccc1)C(C)C)C(=O)CF [ZVAD, Z-VAD-fmk] (Cbz-Val-Ala-Asp(OMe)-CH2F)	prevented	
CN1C(=O)NC(Cc2c[nH]c3c(Cl)cccc23)C1=O (stereo not shown) [necrostatin-1s, Necrostatin-1s]	prevented	
Polyinosinic:polycytidylic acid [Poly(I:C)]		decreased cell viability
B1		decreased cell viability
